Measurements published in patent US20260347403A1, “FUNGICIDAL COMPOUND” (priority 2022, published 2026).
Numbered stars: 1 amine (or outer) side, 2 acyl side, 3 side chain; on linkers, the order of the positions; unused ones are H or OH. Bridge positions count the residues as written; N and C are the ends. Square brackets hold non-standard residues; d marks the D form. Peptide text beside a SMILES is read from it. * marks the point of attachment. X4 = NC(=O)C[C@@H](O)[C@@H](N[*:1])C(=O)[*:2]; d(aThr) = C[C@@H](O)[C@@H](N)C(=O)O; NMeF = CN[C@@H](Cc1ccccc1)C(=O)O; X3 = CC[C@@H](C)CCCCCCCCCCC(=O)*; dNMeN = CN[C@H](CC(N)=O)C(=O)O

How the values were obtained:
[1] = test system: ROS production induced by flg22; test: Reactive Oxygen Species (ROS) burst assay with wheat leaf discs; conditions: Triticum aestivum, foliar, read-out: Fold change (peak ROS)
several fungal species = test: Leaf disc or leaf segment tests, summary over the fungi tested; type: in vivo; conditions: Tables 4 and 5; relative to the other compounds
Description: (§1) Leaf disks or leaf segments of various plant species were cut from plants grown in the greenhouse. The cut leaf disks, or segments were placed in multiwell plates (24-well format) onto water agar. The leaf disks were sprayed with a test solution before inoculation with the fungal spores. Compounds to be tested were prepared as DMSO solutions (max. 10 mg/ml) which were diluted to the appropriate concentration with water plus 0.025% Tween® 20 just before spraying. The inoculated leaf disks or segments were incubated under defined conditions (temperature, relative humidity, light, etc.) according to the respective test system. A single evaluation of disease level was carried out by visual evaluation 3-9 days days after inoculation, depending on the pathosystem as indicated below. Percent disease control relative to the untreated check leaf disks or segments was then calculated.

[2] = test system: Puccinia recondita f. sp. tritici; test: Leaf disc/segment test on wheat, Puccinia recondita f. sp. tritici (Brown Rust), 7-9 days after application; type: in vivo; conditions: Table 5
Description: as §1
Puccinia recondita f. Sp. Tritici/Wheat/Leaf Disc (Brown Rust)
Wheat leaf segments cv. Kanzler were placed on agar in multiwell plates (24-well format) and sprayed with the formulated test compound diluted in water. The leaf disks were inoculated with a spore suspension of the fungus 1 day after application. The inoculated leaf segments were incubated at 19 °C and 75% rh under a light regime of 12 h light/12 h darkness in a climate cabinet and the activity of a compound was assessed as percent disease control compared to untreated when an appropriate level of disease damage appears in untreated check leaf segments (7-9 days after application).

Glomerella lagenarium = test: Liquid culture, Glomerella lagenarium (Colletotrichum lagenarium), Anthracnose, 3-4 days; type: cell-based; conditions: Table 3
Description: (§2) Mycelia fragments or conidia suspensions of a fungus, prepared either freshly from liquid cultures of the fungus or from cryogenic storage, were directly mixed into nutrient broth.
(§3) A stock solution for compound of Formula I(a) and Formula I(b) was produced in DMSO (max. 10 mg/ml), which was diluted with water plus 0.025% Tween®20 to produce a 10× concentrated sample and 10 μl of this solution was pipetted into a microtiter plate (96-well format). The nutrient broth containing the fungal spores/mycelia fragments was then added to give an end concentration of the tested compound. The test plates were incubated in the dark at 24 °C and 96% rh. The inhibition of fungal growth was determined photometrically after 2-7 days, depending on the pathosystem, and percent antifungal activity relative to the untreated check was calculated.
(§4) The effect of the test compound (Formula I(a), I(b) and Lipopeptin A) was tested against the following fungi under the conditions as outlined above and specifically herein below:
Glomerella lagenarium (Colletotrichum lagenarium)/Liquid Culture (Anthracnose)
Conidia of the fungus from cryogenic storage were directly mixed into nutrient broth (PDB potato dextrose broth). The inhibition of growth was measured photometrically 3-4 days after application.

Mycosphaerella arachidis = test: Liquid culture, Mycosphaerella arachidis (Cercospora arachidicola), early leaf spot, 4-5 days; type: cell-based; conditions: Table 3
Description: as §2, §3, §4
Mycosphaerella arachidis (Cercospora arachidicola)/liquid culture (early leaf spot) Conidia of the fungus from cryogenic storage were directly mixed into nutrient broth (PDB potato dextrose broth). The inhibition of growth was determined photometrically 4-5 days after application.

[3] = test system: several phytopathogenic fungi; test: Liquid culture assays, summary over the fungi tested; type: cell-based; conditions: Tables 2 and 3; relative to the other compounds
Description: as §2, §3
The effect of the test compound (Formula I(a), I(b) and Lipopeptin A) was tested against the following fungi under the conditions as outlined above and specifically herein below: […]

Zymoseptoria tritici = test: Liquid culture, Zymoseptoria tritici (Septoria tritici), Septoria leaf blotch, 4-5 days; type: cell-based; conditions: Table 3
Description: as §2, §3, §4
Zymoseptoria tritici (Septoria tritici)/liquid culture (Septoria leaf blotch) Conidia of the fungus from cryogenic storage were directly mixed into nutrient broth (PDB potato dextrose broth). The inhibition of growth was determined photometrically 4-5 days after application.

Pyrenophora teres = test: Leaf disc preventative test on barley, Pyrenophora teres (Net Blotch), 5-7 days after application; type: in vivo; conditions: Table 5
Description: as §1
Pyrenophora teres/Barley/Leaf Disc Preventative (Net Blotch)
Barley leaf segments cv. Hasso were placed on agar in a multiwell plate (24-well format) and sprayed with the formulated test compound diluted in water. The leaf segments were inoculated with a spore suspension of the fungus 2 days after application. The inoculated leaf segments were incubated at 20 °C and 65% rh under a light regime of 12 h light/12 h darkness in a climate cabinet and the activity of a compound was assessed as disease control compared to untreated when an appropriate level of disease damage appears in untreated check leaf segments (5-7 days after application).

Botryotinia fuckeliana = test: Liquid culture, Botryotinia fuckeliana (Botrytis cinerea), Gray Mould, 3-4 days; type: cell-based; conditions: Table 3
Description: as §2, §3, §4
Botryotinia fuckeliana (Botrytis cinerea)/Liquid Culture (Gray Mould)
Conidia of the fungus from cryogenic storage were directly mixed into nutrient broth (Vogels broth). The inhibition of growth is determined photometrically 3-4 days after application.

Phaeosphaeria nodorum = test: Leaf disc test on wheat, Phaeosphaeria nodorum (Glume Blotch), 5-7 days after application; type: in vivo, Phaeosphaeria nodorum (Septoria nodorum) on wheat; conditions: Table 5
Description: as §1
Phaeosphaeria Nodorum (Septoria nodorum)/Wheat/Leaf Disc (Glume Blotch)
Wheat leaf segments cv. Kanzler were placed on agar in a multiwell plate (24-well format) and sprayed with the formulated test compound diluted in water. The leaf disks were inoculated with a spore suspension of the fungus 2 days after application. The inoculated test leaf disks were incubated at 20 °C and 75% rh under a light regime of 12 h light/12 h darkness in a climate cabinet and the activity of a compound was assessed as percent disease control compared to untreated when an appropriate level of disease damage appears in untreated check leaf disks (5-7 days after application)

O=C(O)c1cc(Cl)nc(Cl)c1 [INA, 2.6-dichloro-isonicotinic acid, reference compound]
1.8: fold induction at 100 ppm [1]

CC[C@@H](C)CCCCCCCCCCC(=O)N[C@H]1C(=O)N[C@@H](CC(=O)O)C(=O)N[C@H](CO)C(=O)N[C@@H](CO)C(=O)N(C)[C@H](CC(N)=O)C(=O)N(C)[C@@H](Cc2ccccc2)C(=O)N[C@H]([C@H](O)CC(N)=O)C(=O)N[C@H](CCC(=O)O)C(=O)O[C@@H]1C [Lipopeptin A, reference compound] (X3-[d(aThr)]D[dS]S[dNMeN][NMeF][X4][dE]; ester 1-C)
0%: % reduction of fungal growth ([2]; 0.82 ppm) | % reduction of fungal growth ([2]; 2.5 ppm) | % reduction of fungal growth ([2]; 7.4 ppm) | % reduction of fungal growth ([2]; 22 ppm) | % reduction of fungal growth ([2]; 67 ppm) | % reduction fungal growth (Glomerella lagenarium; 0.41 ppm) | % reduction fungal growth (Glomerella lagenarium; 1.2 ppm) | % reduction fungal growth (Glomerella lagenarium; 3.7 ppm) | % reduction fungal growth (Glomerella lagenarium; 11 ppm) | % reduction fungal growth (Glomerella lagenarium; 33 ppm) | % reduction fungal growth (Glomerella lagenarium; 100 ppm) | % reduction fungal growth (Mycosphaerella arachidis; 0.41 ppm) | % reduction fungal growth (Mycosphaerella arachidis; 1.2 ppm) | % reduction fungal growth (Mycosphaerella arachidis; 3.7 ppm) | % reduction fungal growth (Mycosphaerella arachidis; 11 ppm) | % reduction fungal growth (Mycosphaerella arachidis; 33 ppm) | % reduction fungal growth (Mycosphaerella arachidis; 100 ppm) | % reduction fungal growth (Zymoseptoria tritici; 0.41 ppm) | % reduction fungal growth (Zymoseptoria tritici; 1.2 ppm) | % reduction fungal growth (Zymoseptoria tritici; 3.7 ppm) | % reduction fungal growth (Zymoseptoria tritici; 11 ppm) | % reduction fungal growth (Zymoseptoria tritici; 33 ppm) | % reduction of fungal growth (Pyrenophora teres; 0.82 ppm) | % reduction of fungal growth (Pyrenophora teres; 2.5 ppm) | % reduction of fungal growth (Pyrenophora teres; 7.4 ppm) | % reduction of fungal growth (Pyrenophora teres; 22 ppm) | % reduction of fungal growth (Pyrenophora teres; 67 ppm) | % reduction of fungal growth (Pyrenophora teres; 200 ppm) | % reduction fungal growth (Botryotinia fuckeliana; 0.41 ppm) | % reduction fungal growth (Botryotinia fuckeliana; 1.2 ppm) | % reduction fungal growth (Botryotinia fuckeliana; 3.7 ppm) | % reduction fungal growth (Botryotinia fuckeliana; 11 ppm) | % reduction fungal growth (Botryotinia fuckeliana; 33 ppm) | % reduction fungal growth (Botryotinia fuckeliana; 100 ppm) | % reduction of fungal growth (Phaeosphaeria nodorum; 0.82 ppm) | % reduction of fungal growth (Phaeosphaeria nodorum; 2.5 ppm) | % reduction of fungal growth (Phaeosphaeria nodorum; 7.4 ppm) | % reduction of fungal growth (Phaeosphaeria nodorum; 22 ppm) | % reduction of fungal growth (Phaeosphaeria nodorum; 67 ppm) | % reduction of fungal growth (Phaeosphaeria nodorum; 200 ppm)
70%: % reduction fungal growth (Zymoseptoria tritici; 100 ppm)
less active: activity on leaf discs in words (several fungal species) | activity in liquid culture in words [3]
35%: % reduction of fungal growth ([2]; 200 ppm)
